In EP2676962A1, “Derivatives of 1-aminoalkylphosphonate diaryl esters, method of 1-aminoalkylphosphonate diaryl ester derivatives preparation and their application” (priority 2012, dated 2013):
Read-outs that look alike come from different tables or passages of the source.

Columns and labels:
Format in all cases: biochemical
[1] = target: porcine pancreatic elastase (PPE) (Sus scrofa, UniProt P00772); experiment: Inhibitory activity toward porcine pancreatic elastase, fluorogenic substrate, microplate reader
Description: (§1) The biological activity of peptidyl derivatives of phosphonic analogs of valine, alanine, phenylalanine, 4-guanidinephenylglycine, leucine, and 1-aminobutyric acid, containing the N-terminal biotin residue were tested for their ability to inhibit proteolytic activity of selected serine proteases, and the control cysteine proteases. All tests were performed using a microplate reader. As enzyme substrates fluorescent peptides were used. The method to measure the activity of the compounds obtained are described below for each of the enzymes tested: human neutrophil elastase (HNE), porcine pancreatic elastase (PPE), subtilisin (Sub), cathepsin G (CatG), proteinase 3 (PR3), chymotrypsin (ChTry) trypsin (Try), papain (Pap) and cathepsin L (CatL). Measurement of the inhibitory activity was performed at different inhibitor concentrations ranging from 12.5 nM to 2000nm.
Measurement of inhibitory activity of compounds toward porcine pancreatic elastase (PPE).
(§2) The inhibitory activity assay is performed at 37°C in 0,01M Tris-HCl, 0,05% Triton X-100 buffer, pH 8,5, within 10 min after initial pre-incubation of the enzyme with inhibitor tested at 37°C for 10 min. The enzyme concentration is 60nM. Substrate used Me-Suc-Ala-Ala-Pro-Val-AMC at 100µM. Measurement is taken at an excitation wavelength of 350nm and 460nm emission.
(§3) The IC50 value is the concentration of inhibitor required to inhibit half of the enzyme activity after 10 minutes incubation.

[2] = target: T1, cathepsin G (CatG) (Homo sapiens, UniProt P08311); experiment: Inhibitory activity toward cathepsin G, fluorogenic substrate, microplate reader
T1 sequence (P08311 21-244): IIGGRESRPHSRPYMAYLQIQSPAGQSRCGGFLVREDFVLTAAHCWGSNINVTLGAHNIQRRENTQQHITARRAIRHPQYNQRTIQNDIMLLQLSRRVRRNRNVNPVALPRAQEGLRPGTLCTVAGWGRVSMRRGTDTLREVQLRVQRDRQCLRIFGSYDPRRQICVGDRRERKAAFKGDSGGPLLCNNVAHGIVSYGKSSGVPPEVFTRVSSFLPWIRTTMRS
Description: as §1
Measurement of inhibitory activity of compounds toward cathepsin G (CatG).
(§4) The inhibitory activity assay is performed at 37°C in 0,1M Tric-HCl, 0,5M NaCl buffer, pH 7,5, within 10 min after initial pre-incubation of the enzyme with inhibitor tested at 37°C for 10 min. The enzyme concentration is 100nM. Substrate used MCA-Phe-Val-Thr-Gnf-Ser-Trp-Anb-NH2 at 2.5µM. Measurement is taken at an excitation wavelength of 325nm and 400nm emission.
as §3

[3] = target: subtilisin (Sub) (Bacillus licheniformis, UniProt P00780); experiment: Inhibitory activity toward subtilisin, fluorogenic substrate, microplate reader; details: for Sub Kobs/[I]: 10 min pre-incubation at 37°C, pH 7,5, Me-Suc-Ala-Ala-Pro-Phe-AMC 5µM, NI = brak inhibicji (no inhibition)
Description: as §1
Measurement of inhibitory activity of compounds toward subtilisin (Sub).
as §2, with “0,05M” for “0,01M”, “1M NaCl, 0,01%” for “0,05%”, “7,5,” for “8,5,”, “5nM.” for “60nM.”, “Me-Suc-Ala-Ala-Pro-Phe-AMC” for “Me-Suc-Ala-Ala-Pro-Val-AMC”, “5µM.” for “100µM.”
as §3

[4] = target: T2, proteinase 3 (PR3) (Homo sapiens, UniProt P24158); experiment: Inhibitory activity toward proteinase 3, fluorogenic substrate, microplate reader
T2 sequence (P24158 28-248): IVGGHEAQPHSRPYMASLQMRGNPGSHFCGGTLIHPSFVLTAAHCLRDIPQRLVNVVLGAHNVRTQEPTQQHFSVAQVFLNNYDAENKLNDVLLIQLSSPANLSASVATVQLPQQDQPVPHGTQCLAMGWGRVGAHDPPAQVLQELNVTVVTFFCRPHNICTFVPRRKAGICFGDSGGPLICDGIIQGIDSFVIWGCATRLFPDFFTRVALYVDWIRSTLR
Description: as §1
Measurement of inhibitory activity of compounds toward proteinase 3(PR3).
as §4, with “17nM.” for “100nM.”, “Abz-Tyr-Tyr-Abu-Anb-NH2” for “MCA-Phe-Val-Thr-Gnf-Ser-Trp-Anb-NH2”, “30µM.” for “2.5µM.”
as §3

[5] = target: T3, human neutrophil elastase (HNE) (Homo sapiens, UniProt P08246); experiment: Inhibitory activity toward human neutrophil elastase, fluorogenic substrate, microplate reader
T3 sequence (P08246 30-267): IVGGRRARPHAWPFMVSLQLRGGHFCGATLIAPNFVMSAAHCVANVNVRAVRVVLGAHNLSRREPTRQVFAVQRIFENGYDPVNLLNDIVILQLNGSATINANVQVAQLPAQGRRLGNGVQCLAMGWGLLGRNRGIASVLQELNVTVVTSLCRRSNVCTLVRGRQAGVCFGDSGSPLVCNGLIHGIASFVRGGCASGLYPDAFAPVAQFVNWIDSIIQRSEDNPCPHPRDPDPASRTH
Description: as §1
Measurement of inhibitory activity of compounds toward human neutrophil elastase (HNE).
The inhibitory activity assay is performed at 37°C in 0,01M HEPES, 0,5M NaCl, 0,03% Triton X-100 buffer, pH 7,5, within 10 min after initial pre-incubation of the enzyme with inhibitor tested at 37°C for 10 min. The enzyme concentration is 0,0025U/ml. Substrate used Me-Suc-Ala-Ala-Pro-Val-AFC at 25µM. Measurement is taken at an excitation wavelength of 400nm and 505nm emission.
as §3

[6] = target: chymotrypsin (ChTry) (Bos taurus, UniProt P00766); experiment: Inhibitory activity toward chymotrypsin, fluorogenic substrate, microplate reader; details: 10 min pre-incubation at 37°C, pH 7,5, Suc-Ala-Ala-Pro-Phe-AMC 5µM; NI = brak inhibicji (no inhibition)
Description: as §1
Measurement of inhibitory activity of compounds toward […] (ChyTry).
as §4, with “HEPES,” for “Tric-HCl,”, “3nM.” for “100nM.”, “Suc-Ala-Ala-Pro-Phe-AMC” for “MCA-Phe-Val-Thr-Gnf-Ser-Trp-Anb-NH2”, “5µM.” for “2.5µM.”, “350nm” for “325nm”, “460nm” for “400nm”
as §3

[7] = 10 min pre-incubation at 37°C, pH 8,5, Me-Suc-Ala-Ala-Pro-Val-AMC 100µM, NI = brak inhibicji (no inhibition)
[8] = read-out: Cat G IC50, 10 min pre-incubation at 37°C, pH 7,5, MCA-Phe-Val-Thr-Gnf-Ser-Trp-Anb-NH2 2.5µM, NI = brak inhibicji (no inhibition)
[9] = read-out: PR3 IC50, 10 min pre-incubation at 37°C, pH 7,5, Abz-Tyr-Tyr-Abu-Anb-NH2 30µM, NI = brak inhibicji (no inhibition)
[10] = read-out: HNE IC50, 10 min pre-incubation at 37°C, pH 7,5, Me-Suc-Ala-Ala-Pro-Val-AFC 25µM, NI = brak inhibicji (no inhibition)
[11] = 10 min pre-incubation at 37°C, pH 7,5, Me-Suc-Ala-Ala-Pro-Val-AFC 25µM, NI = brak inhibicji (no inhibition)
[12] = read-out: PPE IC50, 10 min pre-incubation at 37°C, pH 8,5, Me-Suc-Ala-Ala-Pro-Val-AMC 100µM, NI = brak inhibicji (no inhibition)
[13] = 10 min pre-incubation at 37°C, pH 7,5, MCA-Phe-Val-Thr-Gnf-Ser-Trp-Anb-NH2 2.5µM, NI = brak inhibicji (no inhibition)

subtilisin (Sub), sequence (P00780 106-379): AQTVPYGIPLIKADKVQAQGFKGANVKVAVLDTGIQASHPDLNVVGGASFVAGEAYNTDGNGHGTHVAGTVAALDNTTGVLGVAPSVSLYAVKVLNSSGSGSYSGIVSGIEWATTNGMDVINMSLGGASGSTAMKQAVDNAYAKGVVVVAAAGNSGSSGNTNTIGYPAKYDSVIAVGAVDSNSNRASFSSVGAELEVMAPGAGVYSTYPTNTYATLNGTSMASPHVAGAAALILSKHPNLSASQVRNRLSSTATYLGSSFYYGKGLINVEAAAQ
porcine pancreatic elastase (PPE), sequence (P00772 27-266): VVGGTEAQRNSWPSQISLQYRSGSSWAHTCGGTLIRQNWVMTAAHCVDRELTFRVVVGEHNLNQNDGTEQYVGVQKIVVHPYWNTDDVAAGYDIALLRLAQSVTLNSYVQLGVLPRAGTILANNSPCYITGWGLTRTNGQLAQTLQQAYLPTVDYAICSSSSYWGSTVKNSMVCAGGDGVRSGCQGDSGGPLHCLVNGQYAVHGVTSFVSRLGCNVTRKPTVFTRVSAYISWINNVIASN

COc1ccc(OP(=O)(Oc2ccc(OC)cc2)C(CC(C)C)NC(=O)C2CCCN2C(=O)C(NC(=O)CCCCC2SCC3NC(=O)NC32)C(C)C)cc1 (centres unmarked) [Compound 5, bis(4-methoxyphenyl) (3-methyl-1-(1-(3-methyl-2-(5-(2-oxohexahydro-1H-thieno[3,4-d]imidazol-4-yl)pentanamido)butanoyl)pyrrolidine-2-carboxamido)butyl)phosphonate]
IC50 [1]: 5000 nM
PPE Kobs/[I] [1, 7]: 2*10^2 M^-1S^-1
IC50 [2, 8]: > 5000 nM
IC50 [3]: 47.9 ± 0.57 nM
Sub Kobs/[I] [3]: 2.4*10^4 M^-1S^-1
IC50 [4, 9]: > 5000 nM
IC50 [5, 10]: > 5000 nM
ChyTr Kobs/[I] [6]: 7.4*10^3 M^-1S^-1

CSc1ccc(OP(=O)(Oc2ccc(SC)cc2)C(C)NC(=O)C2CCCN2C(=O)C(NC(=O)CCCCC2SCC3NC(=O)NC32)C(C)C)cc1 (centres unmarked) [Compound 4, bis(4-(methylthio)phenyl) 1-(1-(3-methyl-2-(5-(2-oxohexahydro-1H-thieno[3,4-d]imidazol-4-yl)pentanamido)butanoyl)pyrrolidine-2-carboxamido)ethylphosphonate]
IC50 [1]: 136 ± 7.5 nM
PPE Kobs/[I] [1, 7]: 8.5*10^3 M^-1S^-1
IC50 [2, 8]: > 5000 nM
IC50 [3]: 40.2 ± 0.01 nM
Sub Kobs/[I] [3]: 2.9*10^4 M^-1S^-1
IC50 [4, 9]: > 5000 nM
IC50 [5]: 5.55 ± 0.25 nM
HNE Kobs/[I] [5, 11]: 2.1*10^5 M^-1S^-1

CC(C)C(NC(=O)CCCCC1SCC2NC(=O)NC21)C(=O)N1CCCC1C(=O)NC(Cc1ccccc1)P(=O)(Oc1ccccc1)Oc1ccccc1 (centres unmarked) [Compound 3, diphenyl 1-(1-(3-methyl-2-(5-(2-oxohexahydro-1H-thieno[3,4-d]imidazol-4-yl)pentanamido)butanoyl)pyrrolidine-2-carboxamido)-2-phenylethylphosphonate]
IC50 [1, 12]: > 5000 nM
IC50 [2]: 258 ± 33 nM
Cat G Kobs/[I] [2, 13]: 4.5*10^3 M^-1S^-1
IC50 [3]: 11.6 ± 0.2 nM
Sub Kobs/[I] [3]: 1.0*10^5 M^-1S^-1
IC50 [4, 9]: > 5000 nM
IC50 [5, 10]: > 5000 nM
ChyTr Kobs/[I] [6]: 5.6*10^4 M^-1S^-1

CC(C)C(NC(=O)CCC(=O)NCCCCCNC(=O)CCCCC1SCC2NC(=O)NC21)C(=O)N1CCCC1C(=O)NC(Cc1ccccc1)P(=O)(Oc1ccccc1)Oc1ccccc1 (centres unmarked) [Compound 10, diphenyl (1-(1-(3-methyl-2-(4-oxo-4-((5-(5-(2-oxohexahydro-1H-thieno[3,4-d]imidazol-4-yl)pentanamido)pentyl)amino)butanamido)butanoyl)pyrrolidine-2-carboxamido)-2-phenylethyl)phosphonate]
IC50 [1, 12]: > 5000 nM
IC50 [2]: 300 ± 0.5 nM
Cat G Kobs/[I] [2, 13]: 3.8*10^3 M^-1S^-1
IC50 [3]: 39.9 ± 4.6 nM
Sub Kobs/[I] [3]: 2.9*10^4 M^-1S^-1
IC50 [4, 9]: > 5000 nM
IC50 [5, 10]: > 5000 nM
ChyTr Kobs/[I] [6]: 7.0*10^4 M^-1S^-1

CC(C)C(NC(=O)CCCCC1SCC2NC(=O)NC21)C(=O)N1CCCC1C(=O)NC(C(C)C)P(=O)(Oc1ccccc1)Oc1ccccc1 (centres unmarked) [Compound 2, diphenyl 2-methyl-1-(1-(3-methyl-2-(5-(2-oxohexahydro-1H-thieno[3,4-d]imidazol-4-yl)pentanamido)butanoyl)pyrrolidine-2-carboxamido)propylphosphonate]
IC50 [1]: 246 ± 30.5 nM
PPE Kobs/[I] [1, 7]: 4.7*10^3 M^-1S^-1
IC50 [2, 8]: > 5000 nM
IC50 [3]: 415 ± 17 nM
Sub Kobs/[I] [3]: 2.8*10^3 M^-1S^-1
IC50 [4]: 728 ± 44 nM
PR3 Kobs/[I] ([4]; 10 min pre-incubation at 37°C, pH 7,5, Abz-Tyr-Tyr-Abu-Anb-NH2 30µM, NI = brak inhibicji (no inhibition)): 3.2*10^3 M^-1S^-1
IC50 [5]: 6.5 ± 0.3 nM
HNE Kobs/[I] [5, 11]: 1.8*10^5 M^-1S^-1
